Starred links: 1 amine or outer side, 2 acyl side, 3 side chain; linkers in the order of their positions; H or OH if unused. Positions of bridges follow the written chain, without caps; N, C: chain ends. Non-standard residues stand in square brackets, D forms with d. Residues, ends and D or L forms follow the SMILES beside them. *: point of attachment. hTyr(3S-OH,4S-OH,3'-OSO3H) = N[C@H](C(=O)O)[C@H](O)[C@@H](O)c1ccc(O)c(OS(=O)(=O)O)c1; Orn(4R-OH,5R-OH) = O=C([C@H](C[C@@H](O)[C@@H](O)N[*:3])N[*:1])[*:2]; Pro(3S-OH,4S-Me) = C[C@H]1CN[C@H](C(=O)O)[C@H]1O; X1 = CCCCCOc1ccc(-c2cc(-c3ccc(C(=O)*)cc3)no2)cc1; Gln(3R-OH) = NC(=O)C[C@@H](O)[C@H](N)C(=O)O; Hyp = O=C(O)[C@@H]1C[C@@H](O)CN1
Tests used:
Type in all cases: functional
Aspergillus niger [1] = test: Antifungal activity against Aspergillus niger isolate CM-3236 obtained from respiratory tract infection of patient assessed as inhibition of hyphal growth after 48 hrs; conditions: isolate CM-3236, 48 h, read-out: MEC
Aspergillus niger [2] = test: Antifungal activity against Aspergillus niger isolate CM-3257 obtained from respiratory tract infection of patient assessed as inhibition of hyphal growth after 48 hrs; conditions: isolate CM-3257, 48 h, read-out: MEC
Aspergillus niger [3] = test: Antifungal activity against Aspergillus niger isolate CM-3506 obtained from respiratory tract infection of patient assessed as inhibition of hyphal growth after 48 hrs; conditions: isolate CM-3506, 48 h, read-out: MEC
Aspergillus tubingensis [4] = test: Antifungal activity against Aspergillus tubingensis isolate CM-3507 obtained from respiratory tract infection of patient assessed as inhibition of hyphal growth after 48 hrs; conditions: isolate CM-3507, 48 h, read-out: MEC
Aspergillus tubingensis [5] = test: Antifungal activity against Aspergillus tubingensis isolate CM-3585 assessed as inhibition of hyphal growth after 48 hrs; conditions: isolate CM-3585, 48 h, read-out: MEC
Aspergillus niger [6] = test: Antifungal activity against Aspergillus niger isolate CM-3586 obtained from catheter of patient assessed as inhibition of hyphal growth after 48 hrs; conditions: isolate CM-3586, 48 h, read-out: MEC
Aspergillus niger [7] = test: Antifungal activity against Aspergillus niger isolate CM-3636 obtained from respiratory tract infection of patient assessed as inhibition of hyphal growth after 48 hrs; conditions: isolate CM-3636, 48 h, read-out: MEC
Aspergillus niger [8] = test: Antifungal activity against Aspergillus niger isolate CM-3641 obtained from respiratory tract infection of patient assessed as inhibition of hyphal growth after 48 hrs; conditions: isolate CM-3641, 48 h, read-out: MEC
Aspergillus niger [9] = test: Antifungal activity against Aspergillus niger isolate CM-3672 obtained from cutaneous layer of patient assessed as inhibition of hyphal growth after 48 hrs; conditions: isolate CM-3672, 48 h, read-out: MEC
Aspergillus niger [10] = test: Antifungal activity against Aspergillus niger isolate CM-4004 obtained from assessed as inhibition of hyphal growth after 48 hrs; conditions: isolate CM-4004, 48 h, read-out: MEC
Aspergillus niger [11] = test: Antifungal activity against Aspergillus niger isolate CM-4213 obtained from respiratory tract infection of patient assessed as inhibition of hyphal growth after 48 hrs; conditions: isolate CM-4213, 48 h, read-out: MEC
Aspergillus tubingensis [12] = test: Antifungal activity against Aspergillus tubingensis isolate CM-4264 obtained from blood culture assessed as inhibition of hyphal growth after 48 hrs; conditions: isolate CM-4264, 48 h, read-out: MEC
Aspergillus tubingensis [13] = test: Antifungal activity against Aspergillus tubingensis isolate CM-4296 obtained from respiratory tract infection of patient assessed as inhibition of hyphal growth after 48 hrs; conditions: isolate CM-4296, 48 h, read-out: MEC
Aspergillus niger [14] = test: Antifungal activity against Aspergillus niger isolate CM-4316 obtained from respiratory tract infection of patient assessed as inhibition of hyphal growth after 48 hrs; conditions: isolate CM-4316, 48 h, read-out: MEC
Aspergillus tubingensis [15] = test: Antifungal activity against Aspergillus tubingensis isolate CM-5094 obtained from respiratory tract infection of patient assessed as inhibition of hyphal growth after 48 hrs; conditions: isolate CM-5094, 48 h, read-out: MEC
Aspergillus niger [16] = test: Antifungal activity against Aspergillus niger isolate CM-5095 obtained from respiratory tract infection of patient assessed as inhibition of hyphal growth after 48 hrs; conditions: isolate CM-5095, 48 h, read-out: MEC
Aspergillus tubingensis [17] = test: Antifungal activity against Aspergillus tubingensis isolate CM-3123 obtained from respiratory tract infection of patient assessed as inhibition of hyphal growth after 48 hrs; conditions: isolate CM-3123, 48 h, read-out: MEC
Aspergillus tubingensis [18] = test: Antifungal activity against Aspergillus tubingensis isolate CM-3810 obtained from respiratory tract infection of patient assessed as inhibition of hyphal growth after 48 hrs; conditions: isolate CM-3810, 48 h, read-out: MEC
Aspergillus tubingensis [19] = test: Antifungal activity against Aspergillus tubingensis isolate CM-4003 assessed as inhibition of hyphal growth after 48 hrs; conditions: isolate CM-4003, 48 h, read-out: MEC
Aspergillus tubingensis [20] = test: Antifungal activity against Aspergillus tubingensis isolate CM-4005 assessed as inhibition of hyphal growth after 48 hrs; conditions: isolate CM-4005, 48 h, read-out: MEC
Aspergillus tubingensis [21] = test: Antifungal activity against Aspergillus tubingensis isolate CM-4688 obtained from respiratory tract infection of patient assessed as inhibition of hyphal growth after 48 hrs; conditions: isolate CM-4688, 48 h, read-out: MEC
Aspergillus foetidus [22] = test: Antifungal activity against Aspergillus foetidus isolate CM-5264 obtained from respiratory tract infection of patient assessed as inhibition of hyphal growth after 48 hrs; conditions: isolate CM-5264, 48 h, read-out: MEC
Aspergillus tubingensis [23] = test: Antifungal activity against Aspergillus tubingensis isolate CM-3125 obtained from respiratory tract infection of patient assessed as inhibition of hyphal growth after 48 hrs; conditions: isolate CM-3125, 48 h, read-out: MEC
Aspergillus tubingensis [24] = test: Antifungal activity against Aspergillus tubingensis isolate CM-3177 obtained from respiratory tract infection of patient assessed as inhibition of hyphal growth after 48 hrs; conditions: isolate CM-3177, 48 h, read-out: MEC
Aspergillus niger [25] = test: Antifungal activity against Aspergillus niger isolate CM-3551 obtained from respiratory tract infection of patient assessed as inhibition of hyphal growth after 48 hrs; conditions: isolate CM-3551, 48 h, read-out: MEC
Aspergillus tubingensis [26] = test: Antifungal activity against Aspergillus tubingensis isolate CM-3654 obtained from blood culture assessed as inhibition of hyphal growth after 48 hrs; conditions: isolate CM-3654, 48 h, read-out: MEC
Aspergillus tubingensis [27] = test: Antifungal activity against Aspergillus tubingensis isolate CM-4000 by broth dilution method assessed as inhibition of hyphal growth after 48 hrs; conditions: isolate CM-4000, 48 h, read-out: MEC
Aspergillus tubingensis [28] = test: Antifungal activity against Aspergillus tubingensis isolate CM-4001 assessed as inhibition of hyphal growth after 48 hrs; conditions: isolate CM-4001, 48 h, read-out: MEC
Aspergillus foetidus [29] = test: Antifungal activity against Aspergillus foetidus isolate CM-4002 assessed as inhibition of hyphal growth after 48 hrs; conditions: isolate CM-4002, 48 h, read-out: MEC
Aspergillus niger [30] = test: Antifungal activity against Aspergillus niger isolate CM-4262 obtained from Ophthalmic assessed as inhibition of hyphal growth after 48 hrs; conditions: isolate CM-4262, 48 h, read-out: MEC
Aspergillus tubingensis [31] = test: Antifungal activity against Aspergillus tubingensis isolate CM-4352 obtained from respiratory tract infection of patient assessed as inhibition of hyphal growth after 48 hrs; conditions: isolate CM-4352, 48 h, read-out: MEC
Aspergillus tubingensis [32] = test: Antifungal activity against Aspergillus tubingensis isolate CM-4897 obtained from blood culture assessed as inhibition of hyphal growth after 48 hrs; conditions: isolate CM-4897, 48 h, read-out: MEC
Aspergillus tubingensis [33] = test: Antifungal activity against Aspergillus tubingensis isolate CM-4899 obtained from respiratory tract infection of patient assessed as inhibition of hyphal growth after 48 hrs; conditions: isolate CM-4899, 48 h, read-out: MEC
Aspergillus foetidus [34] = test: Antifungal activity against Aspergillus foetidus isolate CM-4995 obtained from prosthesis assessed as inhibition of hyphal growth after 48 hrs; conditions: isolate CM-4995, 48 h, read-out: MEC

| SMILES | minimal effective concentration (Aspergillus niger [1]) | minimal effective concentration (Aspergillus niger [2]) | minimal effective concentration (Aspergillus niger [3]) | minimal effective concentration (Aspergillus tubingensis [4]) | minimal effective concentration (Aspergillus tubingensis [5]) | minimal effective concentration (Aspergillus niger [6]) | minimal effective concentration (Aspergillus niger [7]) | minimal effective concentration (Aspergillus niger [8]) | minimal effective concentration (Aspergillus niger [9]) | minimal effective concentration (Aspergillus niger [10]) | minimal effective concentration (Aspergillus niger [11]) | minimal effective concentration (Aspergillus tubingensis [12]) | minimal effective concentration (Aspergillus tubingensis [13]) | minimal effective concentration (Aspergillus niger [14]) | minimal effective concentration (Aspergillus tubingensis [15]) | minimal effective concentration (Aspergillus niger [16]) | minimal effective concentration (Aspergillus tubingensis [17]) | minimal effective concentration (Aspergillus tubingensis [18]) | minimal effective concentration (Aspergillus tubingensis [19]) | minimal effective concentration (Aspergillus tubingensis [20]) | further results |
| --- | --- | --- | --- | --- | --- | --- | --- | --- | --- | --- | --- | --- | --- | --- | --- | --- | --- | --- | --- | --- | --- |
| CC[C@H](C)C[C@H](C)CCCCCCCCC(=O)N[C@H]1C[C@@H](O)[C@@H](NCCN)NC(=O)[C@@H]2[C@@H](O)CCN2C(=O)[C@H]([C@H](O)CCN)NC(=O)[C@H]([C@H](O)[C@@H](O)c2ccc(O)cc2)NC(=O)[C@@H]2C[C@@H](O)CN2C(=O)[C@H]([C@@H](C)O)NC1=O [CASPOFUNGIN] | 0.25 µg/mL | 0.25 µg/mL | 0.15 µg/mL | 0.06 µg/mL | 0.37 µg/mL | 1 µg/mL | 0.25 µg/mL | 0.5 µg/mL | 0.15 µg/mL | 0.1 µg/mL | 0.39 µg/mL | 0.03 µg/mL | 0.25 µg/mL | 0.25 µg/mL | 0.19 µg/mL | 0.25 µg/mL | 0.25 µg/mL | 0.5 µg/mL | 0.25 µg/mL | 0.5 µg/mL | minimal effective concentration (Aspergillus tubingensis [21]): 0.18 µg/mL; minimal effective concentration (Aspergillus foetidus [22]): 0.06 µg/mL; minimal effective concentration (Aspergillus tubingensis [23]): 0.05 µg/mL; minimal effective concentration (Aspergillus tubingensis [24]): 0.05 µg/mL; minimal effective concentration (Aspergillus niger [25]): 0.03 µg/mL; minimal effective concentration (Aspergillus tubingensis [26]): 0.14 µg/mL; minimal effective concentration (Aspergillus tubingensis [27]): 0.1 µg/mL; minimal effective concentration (Aspergillus tubingensis [28]): 0.11 µg/mL; minimal effective concentration (Aspergillus foetidus [29]): 0.14 µg/mL; minimal effective concentration (Aspergillus niger [30]): 0.13 µg/mL; minimal effective concentration (Aspergillus tubingensis [31]): 0.15 µg/mL; minimal effective concentration (Aspergillus tubingensis [32]): 0.1 µg/mL; minimal effective concentration (Aspergillus tubingensis [33]): 0.1 µg/mL; minimal effective concentration (Aspergillus foetidus [34]): 0.14 µg/mL |
| CCCCCOc1ccc(-c2cc(-c3ccc(C(=O)N[C@H]4C[C@@H](O)[C@@H](O)NC(=O)[C@@H]5[C@@H](O)[C@@H](C)CN5C(=O)[C@H]([C@H](O)CC(N)=O)NC(=O)[C@H]([C@H](O)[C@@H](O)c5ccc(O)c(OS(=O)(=O)O)c5)NC(=O)[C@@H]5C[C@@H](O)CN5C(=O)[C@H]([C@@H](C)O)NC4=O)cc3)no2)cc1 [MICAFUNGIN] (X1-[Orn(4R-OH,5R-OH)]T[Hyp][hTyr(3S-OH,4S-OH,3'-OSO3H)][Gln(3R-OH)][Pro(3S-OH,4S-Me)]; lactam 1-C) | 0.03 µg/mL | 0.03 µg/mL | 0.03 µg/mL | 0.03 µg/mL | 0.03 µg/mL | 0.03 µg/mL | 0.03 µg/mL | 0.03 µg/mL | 0.03 µg/mL | 0.03 µg/mL | 0.03 µg/mL | 0.03 µg/mL | 0.03 µg/mL | 0.03 µg/mL | 0.03 µg/mL | 0.03 µg/mL | 0.03 µg/mL | 0.03 µg/mL | 0.03 µg/mL | 0.03 µg/mL | minimal effective concentration (Aspergillus tubingensis [21]): 0.03 µg/mL; minimal effective concentration (Aspergillus foetidus [22]): 0.03 µg/mL; minimal effective concentration (Aspergillus tubingensis [23]): 0.03 µg/mL; minimal effective concentration (Aspergillus tubingensis [24]): 0.03 µg/mL; minimal effective concentration (Aspergillus niger [25]): 0.03 µg/mL; minimal effective concentration (Aspergillus tubingensis [26]): 0.03 µg/mL; minimal effective concentration (Aspergillus tubingensis [27]): 0.03 µg/mL; minimal effective concentration (Aspergillus tubingensis [28]): 0.03 µg/mL; minimal effective concentration (Aspergillus foetidus [29]): 0.03 µg/mL; minimal effective concentration (Aspergillus niger [30]): 0.03 µg/mL; minimal effective concentration (Aspergillus tubingensis [31]): 0.03 µg/mL; minimal effective concentration (Aspergillus tubingensis [32]): 0.03 µg/mL; minimal effective concentration (Aspergillus tubingensis [33]): 0.05 µg/mL; minimal effective concentration (Aspergillus foetidus [34]): 0.03 µg/mL |

From ChEMBL document CHEMBL1649226, “Species identification and antifungal susceptibility patterns of species belonging to Aspergillus section Nigri” (2009)
